Consider three compounds from ChEMBL document CHEMBL1136409, “Design of novel N-(2,4-dioxo-1,2,3,4-tetrahydro-thieno[3,2-d]pyrimidin-7-yl)-guanidines as thymidine phosphorylase inhibitors, and flexible docking to a homology model” (Bioorg Med Chem Lett, 2003).

SMILES strings stand for the structures. A value given as a limit tells only on which side of the number the result lay.

In the test the target is T1, Thymidine phosphorylase (Homo sapiens, UniProt P19971).
T1 sequence (P19971 whole entry): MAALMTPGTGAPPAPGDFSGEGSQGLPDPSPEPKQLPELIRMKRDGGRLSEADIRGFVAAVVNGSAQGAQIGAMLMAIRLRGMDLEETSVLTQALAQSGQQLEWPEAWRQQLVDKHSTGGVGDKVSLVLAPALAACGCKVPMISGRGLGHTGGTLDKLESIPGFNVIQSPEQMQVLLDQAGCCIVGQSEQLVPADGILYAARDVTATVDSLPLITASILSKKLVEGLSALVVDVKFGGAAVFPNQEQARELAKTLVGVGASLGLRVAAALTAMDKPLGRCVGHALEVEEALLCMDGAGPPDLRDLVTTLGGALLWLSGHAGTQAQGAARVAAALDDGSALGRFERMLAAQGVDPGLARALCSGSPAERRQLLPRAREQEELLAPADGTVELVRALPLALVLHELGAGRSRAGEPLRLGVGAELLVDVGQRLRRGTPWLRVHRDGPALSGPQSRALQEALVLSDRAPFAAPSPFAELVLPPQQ
Description: Binding affinity towards recombinant thymidine phosphorylase TP.
By Ki is commonly meant a measure of affinity in units of concentration, obtained from inhibition or displacement. `Nc1cc2[nH]c(=O)[nH]c(=O)c2s1`: the Ki is over 300 µM. `N=C(N)Nc1cc2[nH]c(=O)[nH]c(=O)c2s1`: the Ki was over 2400 µM.

As to `Nc1csc2c(=O)[nH]c(=O)[nH]c12`, the inhibition constant Ki is over 600 µM.
